Experimental data taken from ChEMBL document CHEMBL5620413, “Novel pterostilbene derivatives ameliorate heart failure by reducing oxidative stress and inflammation through regulating Nrf2/NF-κB signaling pathway” (Eur J Med Chem, 2023).
Calls of active or inactive are those of the source.

How the values were obtained:
RAW264.7 [1] = assay: Antiinflammatory activity in mouse RAW264.7 cells assessed as decrease in LPS-induced NO production at 10 uM preincubated for 1 hr followed by LPS treatment for 24 hrs by Griess reagent based assay; format: functional, cell-based; details: time 25.0 hrs
RAW264.7 [2] = assay: Antiinflammatory activity in mouse RAW264.7 cells assessed as decrease in LPS-induced NO production preincubated for 1 hr followed by LPS treatment for 24 hrs by Griess reagent based assay; format: functional, cell-based; details: dose <= 10.0 µM, time 25.0 hrs
RAW264.7 [3] = assay: Antiinflammatory activity in mouse RAW264.7 cells assessed as decrease in LPS-induced COX2 expression preincubated for 1 hr followed by LPS treatment for 24 hrs by Western blot analysis; format: functional, cell-based; details: dose <= 10.0 µM, time 25.0 hrs
RAW264.7 [4] = assay: Inhibition of ROS generation in mouse RAW264.7 cells preincubated for 1 hr followed by LPS treatment for 24 hrs by DCFH-DA dye based analysis; format: functional, cell-based; details: dose <= 10.0 µM, time 25.0 hrs
RAW264.7 [5] = assay: Inhibition of ROS generation in mouse RAW264.7 cells preincubated for 1 hr followed by DOX treatment for 12 hrs by DCFH-DA dye based analysis; format: functional, cell-based; details: dose <= 10.0 µM, time 13.0 hrs
H9c2 [6] = assay: Inhibition of ROS generation in rat H9c2 cells preincubated for 1 hr followed by DOX treatment for 12 hrs by DCFH-DA dye based analysis; format: functional, cell-based; details: dose <= 10.0 µM, time 13.0 hrs
RAW264.7 [7] = assay: Inhibition of ROS generation in mouse RAW264.7 cells assessed as increase in LPS-reduced Nrf2 expression upto 10 uM preincubated for 1 hr followed by LPS treatment for 24 hrs by Western blot analysis; format: functional, cell-based; details: time 25.0 hrs
RAW264.7 [8] = assay: Inhibition of ROS generation in mouse RAW264.7 cells assessed as increase in DOX-reduced Nrf2 expression upto 10 uM preincubated for 1 hr followed by DOX treatment for 12 hrs by Western blot analysis; format: functional, cell-based; details: time 13.0 hrs
RAW264.7 [9] = assay: Inhibition of ROS generation in mouse RAW264.7 cells assessed as increase in DOX-reduced SOD expression upto 10 uM preincubated for 1 hr followed by DOX treatment for 12 hrs by Western blot analysis; format: functional, cell-based; details: time 13.0 hrs
H9c2 [10] = assay: Inhibition of ROS generation in rat H9c2 cells assessed as increase in DOX-reduced SOD expression upto 10 uM preincubated for 1 hr followed by DOX treatment for 12 hrs by Western blot analysis; format: functional, cell-based; details: time 13.0 hrs
RAW264.7 [11] = assay: Inhibition of ROS generation in mouse RAW264.7 cells assessed as increase in DOX-reduced GPX1 expression upto 10 uM preincubated for 1 hr followed by DOX treatment for 12 hrs by Western blot analysis; format: functional, cell-based; details: time 13.0 hrs
H9c2 [12] = assay: Inhibition of ROS generation in rat H9c2 cells assessed as increase in DOX-reduced GPX1 expression upto 10 uM preincubated for 1 hr followed by DOX treatment for 12 hrs by Western blot analysis; format: functional, cell-based; details: time 13.0 hrs
RAW264.7 [13] = assay: Antiinflammatory activity against mouse RAW264.7 cells assessed as decrease in LPS-induced TNF-alpha expression upto 10 uM preincubated for 1 hr followed by LPS treatment for 24 hrs by Western blot analysis; format: functional, cell-based; details: time 25.0 hrs
RAW264.7 [14] = assay: Antiinflammatory activity against mouse RAW264.7 cells assessed as decrease in LPS-induced IL-6 expression upto 10 uM preincubated for 1 hr followed by LPS treatment for 24 hrs by Western blot analysis; format: functional, cell-based; details: time 25.0 hrs
H9c2 [15] = assay: Antiinflammatory activity against rat H9c2 cells assessed as decrease in DOX-induced IL-6 expression upto 10 uM preincubated for 1 hr followed by DOX treatment for 12 hrs by Western blot analysis; format: functional, cell-based; details: time 13.0 hrs
H9c2 [16] = assay: Antiinflammatory activity against rat H9c2 cells assessed as decrease in LPS-induced NF-kappaB phosphorylation upto 10 uM preincubated for 1 hr followed by LPS treatment for 24 hrs by Western blot analysis; format: functional, cell-based; details: time 25.0 hrs
H9c2 [17] = assay: Antiinflammatory activity against rat H9c2 cells assessed as decrease in DOX-induced NF-kappaB phosphorylation upto 10 uM preincubated for 1 hr followed by DOX treatment for 12 hrs by Western blot analysis; format: functional, cell-based; details: time 13.0 hrs
Mus musculus [18] = assay: Protection against cardiac dysfunction C57BL/6J mouse model assessed as increase in DOX-reduced LVFS at 7 mg/kg, ip administered daily for 4 weeks by echocardiography; format: functional, organism-based
Mus musculus [19] = assay: Protection against cardiac dysfunction C57BL/6J mouse model assessed as increase in DOX-reduced LVEF at 7 mg/kg, ip administered daily for 4 weeks by echocardiography; format: functional, organism-based
Mus musculus [20] = assay: Protection against cardiac dysfunction C57BL/6J mouse model assessed as increase in DOX-reduced heart rate at 7 mg/kg, ip administered daily for 4 weeks by echocardiography; format: functional, organism-based
Mus musculus [21] = assay: Protection against cardiac dysfunction C57BL/6J mouse model assessed as increase in DOX-reduced heart size at 7 mg/kg, ip administered daily for 4 weeks; format: functional, organism-based
Mus musculus [22] = assay: Protection against cardiac dysfunction C57BL/6J mouse model assessed as decrease in DOX-induced serum ALP level at 7 mg/kg, ip administered daily for 4 weeks; format: functional, organism-based
Mus musculus [23] = assay: Protection against cardiac dysfunction C57BL/6J mouse model assessed as decrease in DOX-induced serum ALT level at 7 mg/kg, ip administered daily for 4 weeks; format: functional, organism-based
Mus musculus [24] = assay: Protection against cardiac dysfunction C57BL/6J mouse model assessed as decrease in DOX-induced serum CK level at 7 mg/kg, ip administered daily for 4 weeks; format: functional, organism-based
Mus musculus [25] = assay: Protection against cardiac dysfunction C57BL/6J mouse model assessed as decrease in DOX-induced serum LDH level at 7 mg/kg, ip administered daily for 4 weeks; format: functional, organism-based
Mus musculus [26] = assay: Protection against cardiac dysfunction C57BL/6J mouse model assessed as decrease in DOX-induced accumulation of inflammatory cells at 7 mg/kg, ip administered daily for 4 weeks by H and E staining based analysis; format: functional, organism-based
Mus musculus [27] = assay: Protection against cardiac dysfunction C57BL/6J mouse model assessed as decrease in DOX-induced myocardial fibrosis at 7 mg/kg, ip administered daily for 4 weeks by Sirius Red staining based analysis; format: functional, organism-based
Mus musculus [28] = assay: Inhibition of DOX-induced cardiac ROS generation in cardiac dysfunction C57BL/6J mouse model at 7 mg/kg, ip administered daily for 4 weeks by DHE staining based analysis; format: functional, organism-based
Mus musculus [29] = assay: Protection against cardiac dysfunction C57BL/6J mouse model assessed as increase in DOX-reduced cardiac SOD2 expression at 7 mg/kg, ip administered daily for 4 weeks by Western blot analysis; format: functional, organism-based
Mus musculus [30] = assay: Protection against cardiac dysfunction C57BL/6J mouse model assessed as increase in DOX-reduced cardiac GPX1 expression at 7 mg/kg, ip administered daily for 4 weeks by Western blot analysis; format: functional, organism-based
Mus musculus [31] = assay: Antiinflammatory activity in cardiac dysfunction C57BL/6J mouse model assessed as decrease in DOX-induced IL-6 expression at 7 mg/kg, ip administered daily for 4 weeks by Western blot analysis; format: functional, organism-based
Mus musculus [32] = assay: Antiinflammatory activity in cardiac dysfunction C57BL/6J mouse model assessed as decrease in DOX-induced IL-1beta expression at 7 mg/kg, ip administered daily for 4 weeks by Western blot analysis; format: functional, organism-based
Mus musculus [33] = assay: Antiinflammatory activity in cardiac dysfunction C57BL/6J mouse model assessed as decrease in DOX-induced NF-kappaB expression at 7 mg/kg, ip administered daily for 4 weeks by Western blot analysis; format: functional, organism-based

CCCCOc1ccc(/C=C/c2cc(OC)cc(OC)c2C2CC(C)=NN2C(C)=O)cc1 (stereo not drawn)
active: Activity (RAW264.7 [1]) | Activity (RAW264.7 [2]) Dose-Dependent Effect | Activity (RAW264.7 [3]) Dose-Dependent Effect | inhibition (RAW264.7 [4]) Dose-Dependent Effect | inhibition (RAW264.7 [5]) Dose-Dependent Effect | inhibition (H9c2 [6]) Dose-Dependent Effect | inhibition (RAW264.7 [7]) | inhibition (RAW264.7 [8]) | inhibition (RAW264.7 [9]) | inhibition (H9c2 [10]) | inhibition (RAW264.7 [11]) | inhibition (H9c2 [12]) | Activity (RAW264.7 [13]) | Activity (RAW264.7 [14]) | Activity (H9c2 [15]) | Activity (H9c2 [16]) | Activity (H9c2 [17]) | Activity (Mus musculus [18]) | Activity (Mus musculus [19]) | Activity (Mus musculus [20]) | Activity (Mus musculus [21]) | Activity (Mus musculus [22]) | Activity (Mus musculus [23]) | Activity (Mus musculus [24]) | Activity (Mus musculus [25]) | Activity (Mus musculus [26]) | Activity (Mus musculus [27]) | inhibition (Mus musculus [28]) | Activity (Mus musculus [29]) | Activity (Mus musculus [30]) | Activity (Mus musculus [31]) | Activity (Mus musculus [32]) | Activity (Mus musculus [33])
